# In ChEMBL document CHEMBL3885881, “DrugMatrix”:
# Species on record: Rattus norvegicus
# Test: DrugMatrix - Regimen: Daily Repeat
# Assay type: toxicity, organism-based, Sprague-Dawley
# Set-up: regimen Daily Repeat, gender Male, age 6-8 weeks
# Settings: in vivo, po, route oral GAVAGE, vehicle .5 % CMC; for ABSOLUTE LYMPHOCYTE / ABSOLUTE MONOCYTE / ABSOLUTE SEGMENTED NEUTROPHIL / BASOPHIL / EOSINOPHIL / ERYTHROCYTE COUNT / HEMATOCRIT / HEMOGLOBIN / LEUKOCYTE COUNT / LYMPHOCYTE / MEAN CORPUSCULAR HEMOGLOBIN / MEAN CORPUSCULAR HEMOGLOBIN CONCENTRATION / MEAN CORPUSCULAR VOLUME / MONOCYTE / NEUTROPHIL / NUCLEATED RED BLOOD CELLS / PLATELET COUNT / ABSOLUTE BASOPHIL / ABSOLUTE EOSINOPHIL: tissue Blood; for ALANINE AMINOTRANSFERASE / ALBUMIN / ALKALINE PHOSPHATASE / ASPARTATE AMINOTRANSFERASE / BLOOD UREA NITROGEN / CARBON DIOXIDE / CHLORIDE / CHOLESTEROL / CREATINE PHOSPHOKINASE / CREATININE / GLUCOSE / LACTATE DEHYDROGENASE / LIPASE / PHOSPHORUS / POTASSIUM / SODIUM / TOTAL BILIRUBIN / TOTAL PROTEIN / URIC ACID: tissue Plasma
# [1] = 11 mg/kg, 120 h, dose level Low, time 5 day
# [2] = 110 mg/kg, 72 h, dose level M1, time 3 day
# [3] = 110 mg/kg, 120 h, dose level M1, time 5 day
structure (smiles),measurement,setting,value
COc1ccc2c3c1O[C@H]1C[C@@H](O)C=C[C@@]31CCN(C)C2 [GALANTAMINE],ABSOLUTE LYMPHOCYTE,[1],13451.33 CELLS/uL
same,ABSOLUTE MONOCYTE,[1],58.33 CELLS/uL
same,ABSOLUTE SEGMENTED NEUTROPHIL,[1],1323.67 CELLS/uL
same,BASOPHIL,[1],0%
same,EOSINOPHIL,[1],0%
same,ERYTHROCYTE COUNT,[1],5.81 x10E6/uL
same,HEMATOCRIT,[1],35.73%
same,HEMOGLOBIN,[1],14.27 G/DL
same,LEUKOCYTE COUNT,[1],14.83 x10E3/uL
same,LYMPHOCYTE,[1],90.33%
same,MEAN CORPUSCULAR HEMOGLOBIN,[1],24.57 pg
same,MEAN CORPUSCULAR HEMOGLOBIN CONCENTRATION,[1],39.93 G/DL
same,MEAN CORPUSCULAR VOLUME,[1],61.57 fL
same,MONOCYTE,[1],0.33%
same,NEUTROPHIL,[1],9.33%
same,NUCLEATED RED BLOOD CELLS,[1],0 /100WBC
same,PLATELET COUNT,[1],1163.33 x10E3/uL
same,ALANINE AMINOTRANSFERASE,[1],48.67 u/L
same,ALBUMIN,[1],4.27 G/DL
same,ALKALINE PHOSPHATASE,[1],399 u/L
same,ASPARTATE AMINOTRANSFERASE,[1],74.67 u/L
same,BLOOD UREA NITROGEN,[1],20.33 mg/dL
same,CARBON DIOXIDE,[1],28.33 mmol/L
same,CHLORIDE,[1],99.67 MEQ/L
same,CHOLESTEROL,[1],76.67 mg/dL
same,CREATINE PHOSPHOKINASE,[1],330.67 u/L
same,CREATININE,[1],0.19 mg/dL
same,GLUCOSE,[1],158.67 mg/dL
same,LACTATE DEHYDROGENASE,[1],135 u/L
same,LIPASE,[1],10 u/L
same,PHOSPHORUS,[1],12.37 mg/dL
same,POTASSIUM,[1],6.09 MEQ/L
same,SODIUM,[1],144.2 MEQ/L
same,TOTAL BILIRUBIN,[1],0.23 mg/dL
same,TOTAL PROTEIN,[1],6.17 G/DL
same,URIC ACID,[1],1.33 mg/dL
same,ABSOLUTE BASOPHIL,[2],0 CELLS/uL
same,ABSOLUTE EOSINOPHIL,[2],37.33 CELLS/uL
same,ABSOLUTE LYMPHOCYTE,[2],14169 CELLS/uL
same,ABSOLUTE MONOCYTE,[2],124.67 CELLS/uL
same,ABSOLUTE SEGMENTED NEUTROPHIL,[2],769 CELLS/uL
same,BASOPHIL,[2],0%
same,EOSINOPHIL,[2],0.33%
same,ERYTHROCYTE COUNT,[2],5.81 x10E6/uL
same,HEMATOCRIT,[2],36.57%
same,HEMOGLOBIN,[2],14.27 G/DL
same,LEUKOCYTE COUNT,[2],15.1 x10E3/uL
same,LYMPHOCYTE,[2],94%
same,MEAN CORPUSCULAR HEMOGLOBIN,[2],24.57 pg
same,MEAN CORPUSCULAR HEMOGLOBIN CONCENTRATION,[2],39 G/DL
same,MEAN CORPUSCULAR VOLUME,[2],62.97 fL
same,MONOCYTE,[2],0.67%
same,NEUTROPHIL,[2],5%
same,NUCLEATED RED BLOOD CELLS,[2],0 /100WBC
same,PLATELET COUNT,[2],1366 x10E3/uL
same,ALANINE AMINOTRANSFERASE,[2],64.33 u/L
same,ALBUMIN,[2],4.03 G/DL
same,ALKALINE PHOSPHATASE,[2],411.33 u/L
same,ASPARTATE AMINOTRANSFERASE,[2],91 u/L
same,BLOOD UREA NITROGEN,[2],16 mg/dL
same,CARBON DIOXIDE,[2],33 mmol/L
same,CHLORIDE,[2],102.67 MEQ/L
same,CHOLESTEROL,[2],70.67 mg/dL
same,CREATINE PHOSPHOKINASE,[2],247.67 u/L
same,CREATININE,[2],0.2 mg/dL
same,GLUCOSE,[2],131.33 mg/dL
same,LACTATE DEHYDROGENASE,[2],252 u/L
same,LIPASE,[2],8.33 u/L
same,PHOSPHORUS,[2],11.67 mg/dL
same,POTASSIUM,[2],7.08 MEQ/L
same,SODIUM,[2],144.3 MEQ/L
same,TOTAL BILIRUBIN,[2],0.23 mg/dL
same,TOTAL PROTEIN,[2],5.5 G/DL
same,URIC ACID,[2],1.43 mg/dL
same,ABSOLUTE BASOPHIL,[3],0 CELLS/uL
same,ABSOLUTE EOSINOPHIL,[3],67.67 CELLS/uL
same,ABSOLUTE LYMPHOCYTE,[3],15229.33 CELLS/uL
same,ABSOLUTE MONOCYTE,[3],0 CELLS/uL
same,ABSOLUTE SEGMENTED NEUTROPHIL,[3],1603 CELLS/uL
same,BASOPHIL,[3],0%
same,EOSINOPHIL,[3],0.33%
same,ERYTHROCYTE COUNT,[3],5.71 x10E6/uL
same,HEMATOCRIT,[3],35.4%
same,HEMOGLOBIN,[3],14.07 G/DL
same,LEUKOCYTE COUNT,[3],16.9 x10E3/uL
same,LYMPHOCYTE,[3],90%
same,MEAN CORPUSCULAR HEMOGLOBIN,[3],24.67 pg
same,MEAN CORPUSCULAR HEMOGLOBIN CONCENTRATION,[3],39.77 G/DL
same,MEAN CORPUSCULAR VOLUME,[3],62.03 fL
same,MONOCYTE,[3],0%
same,NEUTROPHIL,[3],9.67%
same,NUCLEATED RED BLOOD CELLS,[3],0 /100WBC
same,PLATELET COUNT,[3],1316.67 x10E3/uL
same,ALANINE AMINOTRANSFERASE,[3],48 u/L
same,ALBUMIN,[3],4.1 G/DL
same,ALKALINE PHOSPHATASE,[3],401.67 u/L
same,ASPARTATE AMINOTRANSFERASE,[3],99 u/L
same,BLOOD UREA NITROGEN,[3],14.33 mg/dL
same,CARBON DIOXIDE,[3],24.67 mmol/L
same,CHLORIDE,[3],101.67 MEQ/L
same,CHOLESTEROL,[3],60.33 mg/dL
same,CREATINE PHOSPHOKINASE,[3],541 u/L
same,CREATININE,[3],0.27 mg/dL
same,GLUCOSE,[3],132.67 mg/dL
same,LACTATE DEHYDROGENASE,[3],653 u/L
same,LIPASE,[3],11 u/L
same,PHOSPHORUS,[3],13 mg/dL
same,POTASSIUM,[3],6.92 MEQ/L
same,SODIUM,[3],143.03 MEQ/L
same,TOTAL BILIRUBIN,[3],0.23 mg/dL
same,TOTAL PROTEIN,[3],5.77 G/DL
same,URIC ACID,[3],1.8 mg/dL
